9 compounds from PubChem BioAssay (NCI) can be followed below.

Some test systems named below: RPMI-8226 leukemia; OVCAR-3 ovarian; HCT-15 colon; NCI-H226 lung; K-562 leukemia; UACC-257 melanoma; CCRF-CEM leukemia; SW-620 colon; DLD-1 colon; LXFL 529 NSCLC.
Holding throughout (assay): NCI-60 cell line screen, 48 h

Each structure is given as a SMILES string.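 Cells were grown in 96-well plates and exposed to each compound for 48 hours at five concentrations; endpoints were interpolated linearly between bracketing concentrations, or set to the highest concentration if not reached. GI50: concentration for 50% inhibition of growth. TGI marks complete inhibition of growth.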 Bounds are passed on as bounds.

With `Nc1ccccc1C#C/C=C\C#Cc1ccc(F)cc1F`, the GI50 in the test on RPMI-8226 leukemia was 1.36 µM; with OVCAR-3 ovarian, 6.2 µM; in the test with HCT-15 colon, 14.1 µM; in the test on NCI-H226 lung it was 17.3 µM; with K-562 leukemia, 4.98 µM; in the test on UACC-257 melanoma, 19.5 µM. The GI50 in the test with CCRF-CEM leukemia was 0.444 µM; in the test with SW-620 colon it was 36.9 µM. Also, the TGI was 34.3 µM with RPMI-8226 leukemia; 21.4 µM with OVCAR-3 ovarian; 31.7 µM in the test on HCT-15 colon; 35.8 µM in the test with NCI-H226 lung; > 100 µM in the test with K-562 leukemia; 50 µM in the test on UACC-257 melanoma. Also, the TGI in the test on CCRF-CEM leukemia is 10.9 µM; with SW-620 colon, > 100 µM.

For `O=C(NNc1nc2cc(F)ccc2n2c(CN3CCOCC3)ccc12)c1ccccc1`, the GI50 is 0.263 µM in the test on RPMI-8226 leukemia; 0.242 µM with OVCAR-3 ovarian; 0.0577 µM with HCT-15 colon; 0.45 µM in the test with NCI-H226 lung; 0.336 µM in the test on K-562 leukemia; 0.456 µM in the test with UACC-257 melanoma. In addition, the GI50 with CCRF-CEM leukemia is 0.0978 µM; with SW-620 colon, 0.33 µM. Further, the TGI in the test on RPMI-8226 leukemia was 2.6 µM; with OVCAR-3 ovarian, 1.65 µM; in the test on HCT-15 colon, 1.41 µM; with NCI-H226 lung, 2.4 µM; in the test on K-562 leukemia it was 4.21 µM; with UACC-257 melanoma, 3.85 µM. Moreover, the TGI with CCRF-CEM leukemia was found to be 4.44 µM; with SW-620 colon, 2.11 µM.

For `COc1ccc(-c2nc(-c3nc4ccc(F)cc4[nH]3)cc3c2[nH]c2ccccc23)cc1`, the GI50 is 1.16 µM in the test with RPMI-8226 leukemia; 2.23 µM in the test with OVCAR-3 ovarian; 2.82 µM in the test with HCT-15 colon; 3.12 µM in the test on NCI-H226 lung; 2.79 µM with K-562 leukemia; 2.01 µM in the test with UACC-257 melanoma. Moreover, the GI50 with CCRF-CEM leukemia is 2.29 µM; in the test on SW-620 colon it was 3.73 µM. Also, the TGI in the test on RPMI-8226 leukemia is 3.92 µM; with OVCAR-3 ovarian it was 5.01 µM; in the test on HCT-15 colon it was > 100 µM; in the test with NCI-H226 lung, > 100 µM; in the test on K-562 leukemia, > 100 µM; in the test with UACC-257 melanoma, 4.8 µM. In addition, the figures for the TGI with CCRF-CEM leukemia and in the test with SW-620 colon were 25.6 µM and > 100 µM, respectively.

As for `Cc1ccc(NS(=O)(=O)c2ccc(-c3cnc(C4CC4)o3)cc2)cc1`, the GI50 with RPMI-8226 leukemia was 2.82 µM; in the test on OVCAR-3 ovarian it was 2.1 µM; in the test on HCT-15 colon it was 1.48 µM; in the test on NCI-H226 lung, 7.37 µM; in the test on K-562 leukemia it was 0.519 µM; with UACC-257 melanoma, 10.8 µM. Further, the results for the GI50 in the test on CCRF-CEM leukemia and with SW-620 colon were 3.31 µM and 2.25 µM, respectively. The TGI stood at 12.6 µM in the test on RPMI-8226 leukemia; 6.13 µM in the test with OVCAR-3 ovarian; 13.1 µM with HCT-15 colon; 24.5 µM in the test with NCI-H226 lung; 16.3 µM with K-562 leukemia; 27.8 µM in the test on UACC-257 melanoma. The figures for the TGI in the test with CCRF-CEM leukemia and with SW-620 colon were 34.6 µM and 13.2 µM, respectively.

On to `Brc1c[n+](Cc2ccc3ccccc3c2)cn1Cc1ccc2ccccc2c1`, for which the GI50 was 1.02 µM in the test with RPMI-8226 leukemia; 1.41 µM in the test on OVCAR-3 ovarian; 11.5 µM in the test on HCT-15 colon; 2.24 µM in the test with NCI-H226 lung; 1.84 µM with K-562 leukemia; 1.76 µM with UACC-257 melanoma. Also, the GI50 is 1.69 µM with CCRF-CEM leukemia and 1.61 µM in the test with SW-620 colon. Further, the TGI in the test with RPMI-8226 leukemia worked out at 3.06 µM; in the test with OVCAR-3 ovarian, 2.86 µM; in the test on HCT-15 colon it was 25.7 µM; with NCI-H226 lung it was 5.87 µM; in the test with K-562 leukemia, 10.6 µM; with UACC-257 melanoma it was 4.12 µM. For the same compound, the TGI amounted to 5.04 µM in the test with CCRF-CEM leukemia and 3.62 µM in the test on SW-620 colon.

Turning to `O=S(=O)(Nc1ccc(-c2nc(-c3cccc(OCCN4CCOCC4)c3)c(-c3ccnc(Br)c3)[nH]2)cc1)c1ccccc1`, the GI50 is 2.5 µM in the test with RPMI-8226 leukemia; 4.71 µM with OVCAR-3 ovarian; 1.74 µM in the test with HCT-15 colon; 3.1 µM in the test with NCI-H226 lung; 2.32 µM with K-562 leukemia; 3.03 µM with UACC-257 melanoma. Moreover, the results for the GI50 in the test with CCRF-CEM leukemia and in the test with SW-620 colon were 2.89 µM and 3.53 µM, respectively. Also, the TGI was > 100 µM in the test with RPMI-8226 leukemia; > 100 µM with OVCAR-3 ovarian; 6.79 µM in the test on HCT-15 colon; 40.6 µM in the test on NCI-H226 lung; > 100 µM in the test with K-562 leukemia; 12 µM in the test on UACC-257 melanoma. For the same compound, the TGI in the test with CCRF-CEM leukemia and in the test with SW-620 colon was > 100 µM in each case.

In the case of `CC1OCC2OC(C)OC(C3C4=C(CC(C)(C)CC4=O)OC4=C3C(=O)CC(C)(C)C4)C2O1` (centres undefined), the TGI in the test with RPMI-8226 leukemia, in the test on OVCAR-3 ovarian, in the test on HCT-15 colon, in the test on NCI-H226 lung, in the test with K-562 leukemia and in the test with UACC-257 melanoma was > 100 µM in each case. Moreover, the TGI in the test on CCRF-CEM leukemia and with SW-620 colon was > 100 µM each time.

Take `CN(C(=O)C1CCCCC1)c1ccccc1I(=O)=O`: the GI50 in the test on RPMI-8226 leukemia is 12.9 µM; in the test on OVCAR-3 ovarian, 30.5 µM; in the test on HCT-15 colon it was 23.3 µM; in the test on NCI-H226 lung, > 100 µM; with K-562 leukemia it was 12.5 µM; in the test on UACC-257 melanoma it was 63.6 µM. Moreover, the GI50 with CCRF-CEM leukemia is 17.6 µM; with SW-620 colon, 20 µM. Moreover, the TGI was 33.7 µM in the test on RPMI-8226 leukemia; > 100 µM in the test with OVCAR-3 ovarian; 59.2 µM in the test with HCT-15 colon; > 100 µM in the test on NCI-H226 lung; 27.4 µM in the test with K-562 leukemia; > 100 µM in the test on UACC-257 melanoma. Also, the TGI in the test with CCRF-CEM leukemia amounted to 38 µM; in the test with SW-620 colon, 44.6 µM.

As for `CN(C)CCC1(C2=CCCC2)CC/C(=C\c2ccc3c(c2)OCO3)C1=O` (centres undefined), the TGI in the test on RPMI-8226 leukemia turned out to be 73.9 µM; in the test with DLD-1 colon it was 38.3 µM; with OVCAR-3 ovarian, 31.6 µM; in the test with HCT-15 colon, 29 µM; with LXFL 529 NSCLC, 25.5 µM; in the test with K-562 leukemia it was 32 µM. The TGI with UACC-257 melanoma turned out to be 29 µM; in the test with CCRF-CEM leukemia, 41.4 µM; in the test on SW-620 colon, 29.9 µM.
